pEC50: −log10 of the molar value. Like-named read-outs stand apart in the source and are kept apart here.
Key:
[1] = target: T1, rat adenosine A2a receptors (Rattus norvegicus, UniProt P30543); test: Binding at rat A2a receptors, rat striatal membranes, [3H]-CGS21680
T1 construct: from tissue; host or cells: rat striatum (membranes)
Description: Chemical structures of compounds of the invention are given in the Examples below. Binding experiments were carried out using rat A2a receptors. Ki values were determined for each compound at pH 5.5 and pH 7.4.

[2] = target: adenosine A2A receptor (Homo sapiens, UniProt P29274); test: EC50 at the adenosine A2A receptor; assay type: biochemical
Chain of adenosine A2A receptor (P29274 whole entry): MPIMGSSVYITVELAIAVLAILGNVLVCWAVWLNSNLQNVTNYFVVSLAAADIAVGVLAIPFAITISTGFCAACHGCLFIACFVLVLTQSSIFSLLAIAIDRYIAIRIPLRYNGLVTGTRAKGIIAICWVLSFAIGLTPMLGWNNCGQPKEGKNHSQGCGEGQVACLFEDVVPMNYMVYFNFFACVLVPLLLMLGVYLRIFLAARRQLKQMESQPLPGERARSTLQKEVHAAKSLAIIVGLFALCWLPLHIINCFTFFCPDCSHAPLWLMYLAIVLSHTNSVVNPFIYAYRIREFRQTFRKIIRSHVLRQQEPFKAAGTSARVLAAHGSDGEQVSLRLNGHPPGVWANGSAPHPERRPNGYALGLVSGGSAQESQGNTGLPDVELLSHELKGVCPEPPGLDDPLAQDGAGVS
Source text: For the avoidance of doubt, the EC50 value of a compound is defined herein as the concentration of the compound that provokes a receptor response halfway between the baseline receptor response and the maximum receptor response (as determined, for example, using a dose-response curve).
The EC50 value should be determined under standard conditions (balanced salt solutions buffered to pH 7.4). For EC50 determinations using isolated membranes, cells and tissues this would be in buffered salt solution at pH 7.4 (e.g. cell culture medium), for example as in Daly et al., Pharmacol. (1993) 46, 91-100), or preferably as in Tilburg et al (J. Med. Chem. (2002) 45, 91-100). The EC50 could also be determined in vivo by measuring adenosine receptor mediated responses in a normal healthy animal, or even in a tissue perfused under normal conditions (i.e. oxygenated blood, or oxygenated isotonic media, also buffered at pH 7.4) in a normal healthy animal.

[3] = Tachycardia by 12 lead ECGs in human volunteers; assay type: in vivo
Description: Tachycardia was determined using 12 lead ECGs.

[4] = test system: carageenan-induced inflammation; conditions: rats, 20 mg/kg po; cited from earlier work
[5] = test system: U937 human macrophage cells; conditions: cited from earlier work
[6] = test system: rat adjuvant model of arthritis; test: Analgesic relief in rat adjuvant model of arthritis; assay type: in vivo
[7] = Minimum effective analgesic plasma concentration in the rat; assay type: in vivo
[8] = 20 mg/kg po; cited from earlier work
[9] = Plasma concentrations after single oral dosing in human volunteers; assay type: in vivo
[10] = pH 5.5, read-out: (Ki) nM (pH 5.5)
[11] = pH 7.4, read-out: (Ki) nM (pH 7.4)

T1 sequence (P30543 whole entry): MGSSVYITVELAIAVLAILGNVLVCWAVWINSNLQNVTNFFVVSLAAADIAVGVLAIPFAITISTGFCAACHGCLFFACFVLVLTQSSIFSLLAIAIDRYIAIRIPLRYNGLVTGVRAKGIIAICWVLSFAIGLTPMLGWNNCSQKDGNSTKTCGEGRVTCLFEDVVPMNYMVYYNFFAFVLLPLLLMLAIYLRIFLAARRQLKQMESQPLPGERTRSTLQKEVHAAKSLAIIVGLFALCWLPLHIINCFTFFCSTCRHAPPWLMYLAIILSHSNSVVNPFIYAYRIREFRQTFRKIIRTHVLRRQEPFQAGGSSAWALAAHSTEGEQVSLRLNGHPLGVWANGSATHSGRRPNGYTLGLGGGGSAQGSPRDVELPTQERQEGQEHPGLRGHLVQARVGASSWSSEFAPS

Row | Ki [1, 10] [nM] | Ki [1, 11] [nM] | pEC50 [2] | time with plasma concentrations greater than […] ([9]; human, 0.8 mg oral) | Structure (SMILES) | Tachycardia side effect ([3]; single oral dose 0.2 mg) | Tachycardia side effect ([3]; single oral dose 0.8 mg) | Tachycardia side effect ([3]; single oral dose 3.5 mg) | Tachycardia side effect ([3]; single oral dose 10.5 mg) | Tachycardia side effect ([3]; single oral dose 21 mg) | Tachycardia side effect ([3]; single oral dose 28 mg) | inhibition of carageenan-induced inflammation [4] [%] | phorbol ester induced TNF alpha release [5] | minimum plasma concentration giving maximal analgesic relief [6] [µM] | minimum effective analgesic plasma concentration [7] [µM] | reduction in heart rate [8] [%] | reduction in mean blood pressure [8] [%] | minimum effective dose in the human ([9]; suggested from rat minimum effective plasma concentration)
1 | 1900 | 1900 |  |  | CCCNc1nc(N)c2ncn([C@@H]3O[C@H](CO)[C@@H](O)[C@H]3O)c2n1 [NHCH2CH2CH3] |  |  |  |  |  |  |  |  |  |  |  |  | 
2 | 47 | 17 |  |  | CCCCNc1nc(N)c2ncn([C@@H]3O[C@H](CO)[C@@H](O)[C@H]3O)c2n1 [NHCH2CH2CH2CH3] |  |  |  |  |  |  |  |  |  |  |  |  | 
3 |  |  | ~6.00 | approximately 1.5 h | COc1nc(N)c2ncn([C@@H]3O[C@H](CO)[C@@H](O)[C@H]3O)c2n1 [spongosine, 2-methoxyadenosine] | No | No | No | No | No | Yes | 25 | reduce phorbol ester induced TNF alpha release | 0.06 | 0.025 | 25 | 41 | approximately 0.8 mg

Source: patent publication US7807685B2, “Therapeutic compounds” (CBT Development Limited, priority 2006, dated 2010)
